According to patent US20220112204A1, “SUBSTITUTED DIHYDROPYRANOPYRIMIDINE COMPOUNDS AS KRAS INHIBITORS” (ACCUTAR BIOTECHNOLOGY INC., priority 2020, published 2022):

Key:
KRAS-G12C mutant [1] = target: T1, KRAS-G12C mutant (Homo sapiens, UniProt P01116, G12C); assay: Gel shift assay (SDS-PAGE) for covalent modification of KRAS G12C; assay type: binding; conditions: 0.5 μM compound, 1 μM GDP-bound KRAS G12C, 25° C., 5 minutes, shift indicative of covalent cysteine conjugation
Protocol: 0.5 μM compounds were incubated with 1 μM GDP-bound untagged KRAS (G12C or wild type) proteins at 25° C. for 5 minutes in 40 μl reaction buffer (50 mM Tris, pH 7.5, 100 mM NaCl, 1 mM MgCl2, 1 mM DTT). The reactions were quenched with 10 μI SDS-PAGE sample loading buffer (250 mM Tris-HCl, pH 6.8, 10% SDS, 0.5% bromophenol blue, 50% glycerol and 50 mM DTT) and then analyzed via SDS-PAGE using 4%-20% gradient polyacrylamide gel followed by Coomassie blue stain.
FIG. 1 illustrates mobility change of KRAS-G12C mutant or wild type proteins on SDS-PAGE after 5 minutes of coincubation at 25° C. with exemplary compounds of the present disclosure, indicative of covalent cysteine conjugation.
Table 3 summarizes molecular weight shift of KRAS-G12C mutant on SDS-PAGE after 5 mins of coincubation at 25° C. with exemplary compounds of the present disclosure, indicative of covalent cysteine conjugation.

KRAS-G12C mutant [2] = target: T1, KRAS-G12C mutant; assay: TR-FRET assay of SOS1-assisted KRAS GDP/GTP exchange; assay type: biochemical
Protocol: GDP form of 6*His tagged KRAS-G12C was diluted to 40 nM and incubated with 8 nM LanthaScreen™ Elite Terbium-anti-HIS Antibody (Thermo, catalog number PV5863) in reaction buffer containing 20 mM Tris, pH 7.5, 100 mM NaCl, 1 mM DTT, 0.1% Tween20, 0.05% BSA, 2% DMSO, 1 mM MgCl2. After 1 hour-incubation at 4° C., proteins were placed in 384 well plate (PerkinElmer, PROXIPLATE-384 PLUS). Then compounds with different concentrations were added to the proteins. BODIPY labeled GTP (Thermo, catalog number G12411) and SOS-1 (or reaction buffer as control) were then added to reactions at 200 nM and 1 μM to trigger the exchange of GDP to BODIPY-GTP. TR-FRET emission signals were determined at 520 nm and 620 nm on a Envision® Multilabel Plate Reader (PerkinElmer) using a 337 nm laser as light source. All data were analyzed and plotted using Graph Pad Prism software (version 8.0.1). Raw TR-FRET data were converted to percentage of inhibition (relative to DMSO) using the following equations: […]
b) For a given test compound concentration X:
Signal (X)=Emission ratio (SOS-1 & GTP)—Emission ratio (buffer & GTP)
c) Percentage of inhibition at concentration X=[1−Signal(X)/Signal (DMSO)]*100%
The […] values were determined by nonlinear regression of plots of [inhibitor] vs. percentage of inhibition with variable slope. Table 4 summarizes inhibition of SOS1-assisted GDP/GTP exchanging activity of KRAS-G12C mutant with exemplary compounds of the present disclosure.

[3] = system: phospho-ERK1/2 (Thr202/Tyr204) in MIA PaCa-2 cell line; assay: pERK and ERK Western blot analysis, MIA PaCa-2; assay type: cell-based; conditions: Homo sapiens; MIA PaCa-2 cell line, 4 hours after incubation; read-out: 2D pERK IC50
Protocol: MIA PaCa-2 (ATCC), NCI-H358 (ATCC), NCI-H23 (ATCC), SW837 and A549 (ATCC) cells were plated in 24-well plates at 2×10^5cells/well in RPMI growth medium containing 10% FBS and 1× Penicillin Streptomycin. They were then incubated at 37° C. overnight. The following day, the test compound was administered to the cells by using 1000× compound stock solution prepared in DMSO at various concentrations. After administration of the compound, the cells were then incubated at 37° C. for 4 hours. Upon completion, the cells were washed with PBS and protein was collected in Laemmli sample buffer (1×; VWR International). Proteins in cell lysate were separated by SDS-PAGE and transferred to Odyssey nitrocellulose membranes (Licor) with iblot® dry blotting transfer system (ThermoFisher). Nonspecific binding was blocked by incubating membranes with Intercept Blocking Buffer (Licor) for 1 hour at room temperature with gentle shaking. The membranes were then incubated overnight at 4° C. with primary antibodies rabbit anti-phospho p44/42 MAPK (Erk1/2) (1:2,000, Cell Signaling, 4370) and mouse anti-p44/42 MAPK (Erk1/2) (1:1,000, Cell Signaling, 4696) diluted in Intercept Blocking Buffer containing 0.1% Tween 20. After washing 3 times with TBS-T, the membranes were incubated with IRDye® 800CW goat anti-rabbit IgG (1:20,000, Licor) or IRDye® 680CW goat anti-mouse IgG (1:20,000, Licor) for 1 hour. After TBS-T washes, membranes were rinsed in TBS and scanned on Odyssey® CLx Imaging System (Licor). The bands were quantified using Image Studio™ Software (Licor).

SMILES	KRAS-G12C molecular weight shift (KRAS-G12C mutant [1])	IC50 (KRAS-G12C mutant [2])	IC50 [3]
C=C(F)C(=O)N1CCN(c2nc(OCC34CCCN3CCC4)nc3c2CO[C@@H](c2cccc4cccc(C)c24)C3)C[C@@H]1CC#N (single isomer, unassigned) [Compound 57]	No	4860 nM	> 100 nM
C=C(F)C(=O)N1CCN(c2nc(OCC34CCCN3CCC4)nc3c2[C@@H](C)O[C@@H](c2cccc4cccc(C)c24)C3)C[C@@H]1CC#N [Compound 65, 2-((S)-1-(2-fluoroacryloyl)-4-((5R,7R)-5-methyl-7-(8-methylnaphthalen-1-yl)-2-((tetrahydro-1H-pyrrolizin-7a(5H)-yl)methoxy)-7,8-dihydro-5H-pyrano[4,3-d]pyrimidin-4-yl)piperazin-2-yl)acetonitrile]	No	11600 nM	> 100 nM
C=CC(=O)N1CCN(c2nc(OC[C@@H]3C[C@H](F)CN3C)nc3c2CO[C@@H](c2cccc4ccccc24)C3)C[C@@H]1CC#N [Compound 10, 2-((S)-1-acryloyl-4-((R)-2-(((2S,4S)-4-fluoro-1-methylpyrrolidin-2-yl)methoxy)-7-(naphthalen-1-yl)-7,8-dihydro-5H-pyrano[4,3-d]pyrimidin-4-yl)piperazin-2-yl)acetonitrile]	–	13900 nM	> 100 nM
C=C(F)C(=O)N1CCN(c2nc(OCC34CCCN3CCC4)nc3c2CO[C@@H](c2cccc4cccc(Cl)c24)C3)C[C@@H]1CC#N (single isomer, unassigned) [Compound 54]	No	2350 nM	> 100 nM
C=C(F)C(=O)N1CCN(c2nc(OC[C@@H]3CCCN3C)nc3c2CO[C@@H](c2cccc4cccc(Cl)c24)C3)C[C@@H]1CC#N [Compound 19, 2-((S)-4-((R)-7-(8-chloronaphthalen-1-yl)-2-(((S)-1-methylpyrrolidin-2-yl)methoxy)-7,8-dihydro-5H-pyrano[4,3-d]pyrimidin-4-yl)-1-(2-fluoroacryloyl)piperazin-2-yl)acetonitrile]	No	80800 nM	> 100 nM
C=C(F)C(=O)N1CCN(c2nc(OC[C@@H]3CCCN3C)nc3c2COC(c2cccc4ccccc24)C3)C[C@@H]1CC#N (stereo partly drawn) [Compound 1, 2-((2S)-1-(2-fluoroacryloyl)-4-(2-(((S)-1-methylpyrrolidin-2-yl)methoxy)-7-(naphthalen-1-yl)-7,8-dihydro-5H-pyrano[4,3-d]pyrimidin-4-yl)piperazin-2-yl)acetonitrile]	–	698 nM	> 100 nM
C=CC(=O)N1CCN(c2nc(OC[C@@H]3CCCN3C)nc3c2CO[C@@H](c2cccc4ccccc24)C3)C[C@@H]1CC#N [Compound 5, 2-((S)-1-acryloyl-4-((R)-2-(((S)-1-methylpyrrolidin-2-yl)methoxy)-7-(naphthalen-1-yl)-7,8-dihydro-5H-pyrano[4,3-d]pyrimidin-4-yl)piperazin-2-yl)acetonitrile]	–	2150 nM	> 100 nM
C=C(F)C(=O)N1CCN(c2nc(OCC34CCCN3CCC4)nc3c2COC(c2cccc4c2CCCC4)C3)C[C@@H]1CC#N (stereo partly drawn) [Compound 67, 2-((2S)-1-(2-fluoroacryloyl)-4-(2-((tetrahydro-1H-pyrrolizin-7a(5H)-yl)methoxy)-7-(5,6,7,8-tetrahydronaphthalen-1-yl)-7,8-dihydro-5H-pyrano[4,3-d]pyrimidin-4-yl)piperazin-2-yl)acetonitrile]	Yes	36 nM	10 to 100 nM
C=CC(=O)N1CCN(c2nc(OC[C@@H]3CCCN3C)nc3c2COC(c2cccc4cccc(Cl)c24)C3)C[C@@H]1CC#N (stereo partly drawn) [Compound 3, 2-((2S)-1-acryloyl-4-(7-(8-chloronaphthalen-1-yl)-2-(((S)-1-methylpyrrolidin-2-yl)methoxy)-7,8-dihydro-5H-pyrano[4,3-d]pyrimidin-4-yl)piperazin-2-yl)acetonitrile]	–	29 nM	1 to 10 nM
C=CC(=O)N1CCN(c2nc(OC[C@@H]3CCCN3C)nc3c2CO[C@@H](c2cccc4cccc(Cl)c24)C3)C[C@@H]1CC#N [Compound 6, 2-((S)-1-acryloyl-4-((R)-7-(8-chloronaphthalen-1-yl)-2-(((S)-1-methylpyrrolidin-2-yl)methoxy)-7,8-dihydro-5H-pyrano[4,3-d]pyrimidin-4-yl)piperazin-2-yl)acetonitrile]	–	7130 nM	> 100 nM
C=C(F)C(=O)N1CCN(c2nc(OCC3(CN(C)C)CC3)nc3c2COC(c2cccc4cccc(Cl)c24)C3)C[C@@H]1CC#N (stereo partly drawn) [Compound 70, 2-((2S)-4-(7-(8-chloronaphthalen-1-yl)-2-((1-((dimethylamino)methyl)cyclopropyl)methoxy)-7,8-dihydro-5H-pyrano[4,3-d]pyrimidin-4-yl)-1-(2-fluoroacryloyl)piperazin-2-yl)acetonitrile]	Yes	303 nM	10 to 100 nM
C=C(F)C(=O)N1CCN(c2nc(OCC34CCCN3CCC4)nc3c2[C@@H](C)O[C@@H](c2cccc4c2CCCC4)C3)C[C@@H]1CC#N [Compound 60, 2-((S)-1-(2-fluoroacryloyl)-4-((5R,7R)-5-methyl-2-((tetrahydro-1H-pyrrolizin-7a(5H)-yl)methoxy)-7-(5,6,7,8-tetrahydronaphthalen-1-yl)-7,8-dihydro-5H-pyrano[4,3-d]pyrimidin-4-yl)piperazin-2-yl)acetonitrile]	No	4200 nM	> 100 nM
C=C(F)C(=O)N1CCN(c2nc(OCC34CCCN3CCC4)nc3c2CO[C@@H](c2cccc4c2CCCC4)C3)C[C@@H]1CC#N [Compound 68, 2-((S)-1-(2-fluoroacryloyl)-4-((R)-2-((tetrahydro-1H-pyrrolizin-7a(5H)-yl)methoxy)-7-(5,6,7,8-tetrahydronaphthalen-1-yl)-7,8-dihydro-5H-pyrano[4,3-d]pyrimidin-4-yl)piperazin-2-yl)acetonitrile]	No	2540 nM	> 100 nM
